Experiment [1] has as its target Quadruplex DNA. Put plainly: Binding affinity to 5' FAM-labeled […] (unknown origin) assessed as dissociation constant by surface plasmon resonance assay. It is filed as nucleic-acid assay. For orientation: SPR reads the build-up and loss of mass on a sensor chip optically.
The test system of experiment [2] is SUM-159-PT. Put plainly: Cytotoxicity against human SUM159PT cells harboring wild type BRCA1 and wild type BRCA2 assessed as reduction in cell viability. Type of experiment: functional, cell-based.
Experiment [3] has as its system MDA-MB-231. Description: Antitumor activity against human MDA-MB-231 cells xenografted in BALB/c-nu/nu mouse assessed as tumor growth inhibition at 10 mg/kg, ip measured for 31 days. Type of experiment: functional. The conditions noted are these: MDA-MB-231, 744 h, time 31 day, read-out: TGI. In general terms: A xenograft is tissue or cells of one species grown in another, often human tumour cells in immunodeficient mice.

The subject of experiment [4] is MDA-MB-468. Description: Cytotoxicity against human MDA-MB-468 cells harboring wild type BRCA1 and BRCA2 mutant reduction in assessed as cell viability. It is filed as functional, cell-based.
The target of experiment [5] is Quadruplex DNA. Description: Binding affinity to 5' FAM-labeled c-myc G4-quadruplex DNA Pu22 (unknown origin) assessed as dissociation constant by surface plasmon resonance assay. Type of experiment: nucleic-acid assay.
Experiment [6] in a line: Stabilization of DNA Pu22 (unknown origin ) single strand assessed as G4-quadruplex formation up to 30 uM in presence of potassium ions by spectrum based circular dichroism analysis. A general note: Circular dichroism is widely used to follow secondary structure.
In experiment [7] the test system is Quadruplex DNA. Put plainly: Binding affinity to 5' FAM and 3' TAMRA-labeled c-myc G4-quadruplex DNA HTG21 (unknown origin) assessed as change in melting temperature by fluorescence resonance energy transfer assay. It is filed as nucleic-acid assay.
In experiment [8] the test system is BT-549. Put plainly: Cytotoxicity against human BT-549 cells harboring wild type BRCA1 and wild type BRCA2 assessed as reduction in cell viability. It is filed as functional, cell-based.
Experiment [9] concerns Quadruplex DNA. Description: Binding affinity to 5' FAM and 3' TAMRA-labeled […] (unknown origin) assessed as change in melting temperature by fluorescence resonance energy transfer assay. It is filed as nucleic-acid assay.
Experiment [10] has as its target Quadruplex DNA. Description: Binding affinity to 5' FAM-labeled c-myc G4-quadruplex DNA Pu22 (unknown origin) by fluorescence quench assay. It is filed as nucleic-acid assay.
Experiment [11] concerns MDA-MB-231. Put plainly: Cytotoxicity against human MDA-MB-231 cells harboring wild type BRCA1 and wild BRCA2 assessed as reduction in cell viability. It is filed as functional, cell-based.
Experiment [12] concerns the target Histone deacetylase. Put plainly: Inhibition of HDAC in human MDA-MB-231 cells incubated for 45 mins by luminescence assay. It is filed as cell-based.
A short description of experiment [13]: Stabilization of DNA Pu22 (unknown origin ) single strand assessed as G4-quadruplex formation in absence of potassium ions by spectrum based circular dichroism analysis. Conditions: dose <= 30.0 µM; DDE = dose-dependent effect.
In experiment [14] the test system is Quadruplex DNA. Conditions: dose 1.0 µM.
Description: Binding affinity to 5' FAM and 3' TAMRA-labeled c-myc G4-quadruplex DNA Pu22 (unknown origin) assessed as change in melting temperature at 1 uM by fluorescence resonance energy transfer assay
The test system of experiment [15] is Quadruplex DNA. Put plainly: Binding affinity to 5' FAM and 3' TAMRA-labeled c-myc G4-quadruplex DNA duplex (unknown origin) assessed as change in melting temperature by fluorescence resonance energy transfer assay. It is filed as nucleic-acid assay.
Experiment [16] concerns the target Quadruplex DNA. Put plainly: Binding affinity to 5' FAM-labeled c-myc G4-quadruplex DNA HTG21 (unknown origin) assessed as dissociation constant by surface plasmon resonance assay. Type of experiment: nucleic-acid assay.
The test system of experiment [17] is MDA-MB-231. Description: Antitumor activity against human MDA-MB-231 cells xenografted in BALB/c-nu/nu mouse assessed as increment ratio at 10 mg/kg, ip measured for 31 days. Type of experiment: functional. The conditions noted are these: time 31 day.
Experiment [18] addresses Histone deacetylase. Put plainly: Inhibition of HDAC in human HeLa nuclear extract incubated for 30 mins by fluorescence-based Glo-luminescence assay. Type of experiment: cell-based.

Calls of active or inactive are those of the source. No cut-off for these calls is given here. A value given as a limit tells only on which side of the number the result lay.

What is called Kd is a measure of binding affinity in units of concentration. For orientation: IC50 means the midpoint of a concentration-inhibition curve. Usually ΔTm stands for the change in melting temperature against a reference sample. A word on the T/C: it is the ratio of treated to control. For the molecule `CCN(CC)CCCNC(=O)c1ccc(/C=C2\CCn3c2nc2cc(NCCCN4CCCC4)c(F)cc2c3=O)cc1`, the Kd is 3600 nM in experiment [1], 1800 nM in [5] and more than 10000 nM in experiment [16]. In addition, the IC50 in experiment [2] was 47300 nM; in experiment [4], 47100 nM; in [8], 14600 nM; in experiment [11], 10700 nM; in experiment [12], more than 10000 nM. Further, in experiment [3], the inhibition in vivo at 10 mg/kg turned out to be 48.2%. For the same molecule, the result in experiment [6] was Active. Further, the ΔTm in [7] is 7.3 °C; in experiment [9], 6.4 °C; in [14] it was 17.4 °C; in experiment [15], 1.8 °C. Also, in experiment [10], the DC50 turned out to be 1400 nM. For the same molecule, the Activity result in experiment [13] is “Dde”. For the same molecule, the T/C in [17] stood at 69.7%.
Regarding `CN(C)CCCNC(=O)c1ccc(/C=C2\CCn3c2nc2cc(N4CCN(Cc5ccc(/C=C/C(=O)Nc6ccccc6N)cc5)CC4)c(F)cc2c3=O)cc1`, in experiment [18], the IC50 was found to be 8100 nM. Moreover, in [10], the DC50 worked out at 300 nM. The ΔTm in experiment [14] was 0.7 °C.
In the case of `CN1CCN(c2cc3nc4n(c(=O)c3cc2F)CC/C4=C\c2ccc(C(=O)Nc3ccccc3N)cc2)CC1`, in experiment [10], the DC50 is 200 nM. Further, the ΔTm in experiment [14] amounted to 0.3 °C.
On the same counts, the results for `CN(C)CCCNC(=O)c1ccc(/C=C2\CCn3c2nc2cc(N4CCN(CCCC(=O)NO)CC4)c(F)cc2c3=O)cc1` are 1300 nM and 16.4 °C.
Consider `CN(C)CCCNC(=O)c1ccc(/C=C2\CCn3c2nc2cc(N4CCN(CCCCCC(=O)NO)CC4)c(F)cc2c3=O)cc1.Cl`, for which the IC50 in [18] turned out to be 1600 nM. The same molecule gave a DC50 in [10] of 900 nM. In experiment [14], the ΔTm was 17.3 °C.
In turn, `CN(C)CCCNC(=O)c1ccc(/C=C2\CCn3c2nc2ccc(OCCCCCCC(=O)NO)cc2c3=O)cc1.Cl` had an IC50 in experiment [18] of 60 nM. Further, the DC50 in [10] was determined as 900 nM. Further, in experiment [14], the ΔTm is 4.4 °C.
Take `O=C(CCCCCCC(=O)Nc1ccccc1)NO` [VORINOSTAT]: the IC50 in experiment [4] and in experiment [8] was 2300 nM in each case. The T/C in experiment [17] worked out at 39.3%.
As to `Nc1ccccc1NC(=O)c1ccc(/C=C2\CCn3c2nc2cc(NCCCN4CCCC4)c(F)cc2c3=O)cc1`, in [18], the 50% inhibitory concentration (IC50) turned out to be 8600 nM. For the same molecule, the DC50 in [10] was found to be 600 nM. For the same molecule, in experiment [14], the ΔTm came to 0.6 °C.
The corresponding values for `CN(C)CCCNc1cc2nc3n(c(=O)c2cc1F)CC/C3=C\c1ccc(C(=O)Nc2ccccc2N)cc1` are 5800 nM, 200 nM and 2.3 °C.
Regarding `CN(C)CCCNC(=O)c1ccc(/C=C2\CCn3c2nc2cc(N4CCN(CCCCC(=O)NO)CC4)c(F)cc2c3=O)cc1.Cl`, in experiment [18], the concentration for half-maximal inhibition (IC50) stood at 1500 nM. This molecule also had a DC50 in experiment [10] of 800 nM. For the same molecule, in [14], the ΔTm was determined as 16.7 °C.
For the molecule `Nc1ccccc1NC(=O)c1ccc(CNC(=O)OCc2cccnc2)cc1`, in [14], the ΔTm worked out at 0.1 °C.
In turn, `CN(C)CCCNC(=O)c1ccc(/C=C2\CCn3c2nc2cc(N4CCN(CCCCCCC(=O)NO)CC4)c(F)cc2c3=O)cc1.Cl` displayed an IC50 in experiment [18] of 2100 nM. Also, the DC50 in [10] was 1700 nM. In addition, the ΔTm in experiment [14] amounted to 15.9 °C.
The corresponding values for `CN(C)CCCNC(=O)c1ccc(/C=C2\CCn3c2nc2cc(N4CCN(Cc5ccc(/C=C/C(=O)NO)cc5)CC4)c(F)cc2c3=O)cc1.Cl` are 1900 nM, 200 nM and 1.8 °C.
On to `CN1CCN(c2cc3nc4n(c(=O)c3cc2F)CC/C4=C\c2ccc(C(=O)NO)cc2)CC1`, for which the DC50 in experiment [10] came out at 2900 nM. Besides, the ΔTm in [14] stood at 5.7 °C.
Turning to `CN(C)CCCNC(=O)c1ccc(/C=C2\CCn3c2nc2cc(N4CCN(CCCCCCCC(=O)Nc5ccccc5N)CC4)c(F)cc2c3=O)cc1`, the DC50 in [10] was found to be 1200 nM. In addition, in [14], the shift in melting temperature (ΔTm) was 8.2 °C.
For `Cl.O=C(CCCCCCNC(=O)c1ccc(/C=C2\CCn3c2nc2cc(NCCCN4CCCC4)c(F)cc2c3=O)cc1)NO`, the IC50 in experiment [18] turned out to be 50 nM. Moreover, the DC50 in experiment [10] was determined as 3000 nM. Besides, the ΔTm in [14] is 3.2 °C.
Turning to `CN(C)CCCNC(=O)c1ccc(/C=C2\CCn3c2nc2cc(N4CCN(Cc5ccc(C(=O)NO)cc5)CC4)c(F)cc2c3=O)cc1.Cl`, in experiment [18], the IC50 amounted to 2500 nM. Moreover, the DC50 in experiment [10] stood at 200 nM. Also, the ΔTm in experiment [14] stood at 4.3 °C.
Molecule `CN(C)CCCNC(=O)c1ccc(/C=C2\CCn3c2nc2cc(NCCCCCCC(=O)NO)c(F)cc2c3=O)cc1.Cl` registered an IC50 in [18] of 70 nM. For the same molecule, the DC50 in [10] is 300 nM. Moreover, the ΔTm in experiment [14] stood at 7.2 °C.

(Values after ChEMBL document CHEMBL5113518, “Discovery of a Novel G-Quadruplex and Histone Deacetylase (HDAC) Dual-Targeting Agent for the Treatment of Triple-Negative Breast Cancer” (J Med Chem, 2022).)
